17 compounds from patent US20120065196A1, “AMIDE COMPOUNDS” (priority 2006, published 2012) can be followed below.

Structures are written as SMILES.

The target in this test is T1, human DGAT1 (Homo sapiens, UniProt O75907).
T1 construct: (N); made in house; host or cells: Sf9 insect cells infected with recombinant baculovirus BAC-DGAT1; microsome fraction
T1 sequence (O75907 1-488): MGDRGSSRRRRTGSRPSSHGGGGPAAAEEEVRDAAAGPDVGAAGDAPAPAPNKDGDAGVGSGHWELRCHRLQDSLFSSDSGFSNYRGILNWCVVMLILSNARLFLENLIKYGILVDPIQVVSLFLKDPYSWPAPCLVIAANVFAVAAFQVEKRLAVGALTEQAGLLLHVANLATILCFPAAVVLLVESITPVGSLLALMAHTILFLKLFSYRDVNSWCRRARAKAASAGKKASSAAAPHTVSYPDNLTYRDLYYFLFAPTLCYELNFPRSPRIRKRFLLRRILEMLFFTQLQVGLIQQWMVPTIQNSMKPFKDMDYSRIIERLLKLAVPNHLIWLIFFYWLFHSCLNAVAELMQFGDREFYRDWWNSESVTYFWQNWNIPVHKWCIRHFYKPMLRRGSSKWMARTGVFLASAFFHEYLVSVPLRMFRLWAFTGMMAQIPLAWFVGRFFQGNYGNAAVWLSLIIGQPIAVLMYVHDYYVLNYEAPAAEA
Put plainly: Determination of DGAT inhibitory activity (triglyceride synthesis with DGAT1 high expression Sf9 microsome). The class given is biochemical. The conditions noted are these: 25 μM dioleoylglycerol, 25 μM [14C]-Oleoyl-CoA, 32° C., 20 min, read-out: hDGAT1 IC50. The protocol: Human DGAT1 gene was cloned by PCR using human adipocyte cDNA (Clontech, QUICK-Clone cDNA, human fat cell, cat #637220) as a template and, based on the DGAT1 gene information reported by Case, S. et al. (Proc. Natl. Acad. Sci. U.S.A. 95 (22), 13018-13023 (1998)), a nucleotide sequence (245-1711 of Genbank Accession No. NM_012079) encoding DGAT1 was amplified with the following PCR primer. The primer nucleotide sequence is shown below.
The PCR reaction was conducted using a KOD-plus kit (TOYOBO). The obtained PCR product was electrophoresed on agarose gel (1%), the DNA fragment amplified by PCR was recovered from the gel, and then digested with restriction enzymes EcoRI and SpeI. The DNA treated with the restriction enzymes was electrophoresed on agarose gel (1%), and the obtained DNA fragment was recovered and ligated with plasmid pFASTBAC1 (Invitrogen) digested with restriction enzymes EcoRI and SpeI to give expression plasmid pFB-DGAT1. The nucleotide sequence of the inserted fragment was confirmed and found to be identical with the nucleotide sequence of DGAT1 (245-1711 of Genbank Accession No. NM_012079). Furthermore, using BAC-TO-BAC Baculovirus Expression System (Invitrogen), recombinant baculovirus BAC-DGAT1 was prepared.
SF9 cells were sown at 1×10^6 cells/ml on Sf-900II SFM medium (1 L, Invitrogen) containing 10% fetal calf serum (Trace), 50 mg/L gentamicin (Invitrogen) and 0.1% Pluronic F-68 (Invitrogen), and shaking culture was performed using a 2 L volume Erlenmeyer flask at 27° C., 100 rpm. After culturing for 24 hrs, recombinant baculovirus BAC-DGAT1 (6.7 mL) was added, and the mixture was further cultured for 3 days. The culture medium was centrifuged at 2,000 rpm for 5 min to give virus-infected cells. The infected cells were washed with a phosphate buffered saline (Invitrogen), centrifuged under the same conditions, and the cells were preserved at −80° C. The cryopreserved cells were thawed in ice, suspended in buffer A (50 mM Tris buffer (30 mL, pH 7.4) containing 20% glycerol, 0.15 M NaCl) supplemented with Complete Protease Inhibitor (Boehringer), and ruptured 3 times with a Polytron homogenizer (Kinematica) at 20,000 rpm for 30 sec. The Sf9 microsome fractions were obtained by a conventional method and cryopreserved at −80° C. as a DGAT1 high expression Sf9 microsome.
As a DGAT1 reaction buffer, a solution having a composition of 100 mM Tris-HCl (pH 7.5), 250 mM sucrose, 150 mM MgCl2, 0.01% bovine serum albumin (BSA) was used. Using this buffer, a given concentration of the test compound and a composition (100 μl) of 25 μM dioleoylglycerol, 25 μM [^14C]-Oleoyl-CoA, 5 μg protein/ml DGAT1 high expression Sf9 microsome, and 1% acetone were subjected to a triglyceride synthesis reaction at 32° C. for 20 min. A mixture of 300 μL of chloroform:methanol (=1:2) was added to the reaction mixture to quench the reaction. The reaction mixture was sufficiently mixed and distilled water (200 μL) was added to partition the mixture between a chloroform layer (lower layer) and an aqueous layer (upper layer). The chloroform layer (50 μL) was spotted on a thin layer chromatography silica gel plate (TLC plate, Merck) and developed with a solvent (n-hexane:diethyl ether:ethyl acetate:acetic acid=255:30:15:0.6). The developed TLC plate was dried, contacted with a BAS imaging plate (manufactured by FUJIFILM) and measured with BAS2500 (manufactured by FUJIFILM) 16 hr later to numerically show the amount of [^14C]-triglyceride (TG amount) produced during the reaction. The inhibitory rate was calculated by the following formula:
Inhibitory rate (%)=(1−(TG amount with addition of test compound−blank TG amount)/(control TG amount−blank TG amount))×100 […]
Consider `CC(C)c1nnc([C@H]2CC[C@H](C(=O)NCCNC(=O)c3cn(-c4ccccc4)nc3C(F)(F)F)CC2)o1` [Example E163, N-(2-(trans-4-(5-isopropyl-1,3,4-oxadiazol-2-yl)cyclohexanecarboxamido)ethyl)-1-phenyl-3-(trifluoromethyl)-1H-pyrazole-4-carboxamide], for which the IC50 (commonly the concentration that gives 50% inhibition) was in the range of 10 to 100 nM.

As for `O=C(NCCNC(=O)N1CCC(NS(=O)(=O)c2ccccc2)CC1)c1cn(-c2ccccc2)nc1C(F)(F)F` [Example E114, N-(2-(1-Phenyl-3-(trifluoromethyl)-1H-pyrazole-4-carboxamido)ethyl)-4-(phenylsulfonamido)piperidine-1-carboxamide], the IC50 was 100 to 1000 nM.

Turning to `CC(C)C1CN(C(=O)NCCNC(=O)c2cn(-c3ccccc3)nc2C(F)(F)F)CC1C(=O)c1ccccc1` (centres unmarked) [Example E193, N-(2-(3-benzoyl-4-isopropylpyrrolidine-1-carboxamido)ethyl)-1-phenyl-3-(trifluouromethyl)-1H-pyrazole-4-carboxamide], the half-inhibitory concentration (IC50) fell in the range of 1000 to 10000 nM.

For `O=C(NCCNC(=O)C1CCN(S(=O)(=O)c2ccccc2)CC1)c1cn(-c2ccccc2)nc1C(F)(F)F` [Example E34, N-(2-(1-phenyl-3-(trifluoromethyl)-1H-pyrazole-4-carboxamido)ethyl)-1-(phenylsulfonyl)piperidine-4-carboxamide], the IC50 was 10 to 100 nM.

Consider `CC(C)c1nc([C@H]2CC[C@H](C(=O)NCCNC(=O)c3cn(-c4ccccc4)nc3C(F)(F)F)CC2)no1` [Example E228, N-(2-(trans-4-(5-isopropyl-1,2,4-oxadiazol-3-yl)cyclohexanecarboxamido)ethyl)-1-phenyl-3-(trifluoromethyl)-1H-pyrazole-4-carboxamide], for which the 50% inhibitory concentration (IC50) is 10 to 100 nM.

On to `O=C(NCCNC(=O)[C@H]1CC[C@H](C(=O)c2ccccc2)CC1)c1cn(-c2ccccc2Cl)nc1C(F)(F)F` [Example E164, N-(2-(trans-4-benzoylcyclohexanecarboxamido)ethyl)-1-(2-chlorophenyl)-3-(trifluoromethyl)-1H-pyrazole-4-carboxamide], for which the IC50 was in the range of 10 to 100 nM.

In the case of `CC(C)(C)c1cnc([C@H]2CC[C@H](C(=O)NCCNC(=O)c3cn(-c4ccccc4)nc3C(F)(F)F)CC2)o1` [Example E214, N-(2-(trans-4-(5-tert-butyloxazol-2-yl)cyclohexanecarboxamido)ethyl)-1-phenyl-3-(trifluoromethyl)-1H-pyrazole-4-carboxamide], the concentration for half-maximal inhibition (IC50) fell in the range of 10 to 100 nM.

As for `O=C(NCCNC(=O)C1CCc2nc(-c3ccccc3)sc2C1)c1cn(-c2ccccc2)nc1C(F)(F)F` (centres unmarked) [Example E175, 2-phenyl-N-(2-(1-phenyl-3-(trifluoromethyl)-1H-pyrazole-4-carboxamido)ethyl)-4,5,6,7-tetrahydrobenzo[d]thiazole-6-carboxamide], the IC50 lay in the range of 10 to 100 nM.

With `CC(C)c1nc([C@H]2CC[C@H](C(=O)NCCNC(=O)c3cn(-c4ccccc4Cl)nc3C(F)(F)F)CC2)no1` [Example E257, 1-(2-chlorophenyl)-N-(2-(trans-4-(5-isopropyl-1,2,4-oxadiazol-3-yl)cyclohexanecarboxamido)ethyl)-3-(trifluoromethyl)-1H-pyrazole-4-carboxamide], the IC50 was in the range of 10 to 100 nM.

As to `CN(CCc1ccncc1)C(=O)NCCNC(=O)c1cn(-c2ccccc2)nc1C(F)(F)F` [Example F1, N-(2-(3-Methyl-3-(2-(pyridin-4-yl)ethyl)ureido)ethyl)-1-phenyl-3-(trifluoromethyl)-1H-pyrazole-4-carboxamide], the IC50 lay in the range of 1000 to 10000 nM.

For `O=C(NCCNC(=O)C1CCc2nc(-c3ccccc3O)sc2C1)c1cn(-c2ccccc2)nc1C(F)(F)F` (centres unmarked) [Example E221, 2-(2-hydroxyphenyl)-N-(2-(1-phenyl-3-(trifluoromethyl)-1H-pyrazole-4-carboxamido)ethyl)-4,5,6,7-tetrahydrobenzo[d]thiazole-6-carboxamide], the IC50 was in the range of 10 to 100 nM.

In the case of `CC(C)c1nc([C@H]2CC[C@H](C(=O)NCCNC(=O)c3cn(-c4ccccc4F)nc3C(F)(F)F)CC2)no1` [Example E260, 1-(2-fluorophenyl)-N-(2-(trans-4-(5-isopropyl-1,2,4-oxadiazol-3-yl)cyclohexanecarboxamido)ethyl)-3-(trifluoromethyl)-1H-pyrazole-4-carboxamide], the IC50 fell in the range of 10 to 100 nM.

As to `O=C(NCCNC(=O)[C@H]1CC[C@H](C(=O)c2ccccc2)CC1)c1cn(-c2ccccc2)nc1C(F)(F)F` [Example E65, N-(2-(trans-4-benzoylcyclohexanecarboxamido)ethyl)-1-phenyl-3-(trifluoromethyl)-1H-pyrazole-4-carboxamide], the IC50 lay within 10 to 100 nM.

As for `Cn1cnc(-c2ccccc2)c1C1CCN(C(=O)NCCNC(=O)c2cn(-c3ccccc3)nc2C(F)(F)F)CC1` [Example E207, 4-(1-methyl-4-phenyl-1H-imidazol-5-yl)-N-(2-(1-phenyl-3-(trifluoromethyl)-1H-pyrazole-4-carboxamido)ethyl)piperidine-1-carboxamide], the IC50 was in the range of 100 to 1000 nM.

Consider `CC(C)c1nnc([C@H]2CC[C@H](C(=O)NCCNC(=O)c3cn(-c4ccccc4F)c4ccccc34)CC2)o1` [Example E265, 1-(2-fluorophenyl)-N-(2-(trans-4-(5-isopropyl-1,3,4-oxadiazol-2-yl)cyclohexanecarboxamido)ethyl)-1H-indole-3-carboxamide], for which the half-maximal inhibitory concentration (IC50) was in the range of 10 to 100 nM.

As to `O=C(N[C@H]1CC[C@H](C(=O)NCCNC(=O)c2cn(-c3ccccc3)nc2C(F)(F)F)CC1)c1ccccc1` [Example E91, N-(2-(trans-4-Benzamidocyclohexanecarboxamido)ethyl)-1-phenyl-3-(trifluoromethyl)-1H-pyrazole-4-carboxamide], the IC50 fell in the range of 100 to 1000 nM.

Consider `O=C(NCCNC(=O)[C@H]1CC[C@H](C(=O)c2ccccc2)CC1)c1cn(-c2ccccn2)nc1C(F)(F)F` [Example E150, N-(2-(trans-4-benzoylcyclohexanecarboxamido)ethyl)-1-(pyridin-2-yl)-3-(trifluoromethyl)-1H-pyrazole-4-carboxamide], for which the half-inhibitory concentration (IC50) is less than 10 nM.
